Tests used:
MALME-3M = experiment: NCI-60 antiproliferative screen (SRB); type: cell-based, human; settings: Homo sapiens; 10 µM single dose, 48 h; MALME-3M (Melanoma); read-out: Growth inhibition (%)
OVCAR-8 = experiment: NCI-60 antiproliferative screen (SRB); type: cell-based, human; settings: Homo sapiens; 10 µM single dose, 48 h; OVCAR-8 (Ovarian); read-out: Growth inhibition (%)
A549/ATCC = experiment: NCI-60 antiproliferative screen (SRB); type: cell-based, human; settings: Homo sapiens; 10 µM single dose, 48 h; A549/ATCC (NSCLC); read-out: Growth inhibition (%)
HCC-2998 = experiment: NCI-60 antiproliferative screen (SRB); type: cell-based, human; settings: Homo sapiens; 10 µM single dose, 48 h; HCC-2998 (Colon); read-out: Growth inhibition (%)
786-0 = experiment: NCI-60 antiproliferative screen (SRB); type: cell-based, human; settings: Homo sapiens; 10 µM single dose, 48 h; 786-0 (Renal); read-out: Growth inhibition (%)
MDA-MB-435 = experiment: NCI-60 antiproliferative screen (SRB); type: cell-based, human; settings: Homo sapiens; 10 µM single dose, 48 h; MDA-MB-435 (Melanoma); read-out: Growth inhibition (%)
NCI-H226 = experiment: NCI-60 antiproliferative screen (SRB); type: cell-based, human; settings: Homo sapiens; 10 µM single dose, 48 h; NCI-H226 (NSCLC); read-out: Growth inhibition (%)
SF-295 = experiment: NCI-60 antiproliferative screen (SRB); type: cell-based, human; settings: Homo sapiens; 10 µM single dose, 48 h; SF-295 (CNS); read-out: Growth inhibition (%)
SW-620 = experiment: NCI-60 antiproliferative screen (SRB); type: cell-based, human; settings: Homo sapiens; 10 µM single dose, 48 h; SW-620 (Colon); read-out: Growth inhibition (%)
[1] = system: NCI-60 human cancer cell lines; experiment: NCI-60 screen, full panel summary; type: cell-based; settings: 10 µM single dose; for Mean Growth Percent: all NCI-60 cell lines
Protocol: In a comprehensive test, compounds were assayed at a single dose concentration (10^−5 M) in the full panel of NCI-60 cancer cell lines.

MOLT-4 = experiment: NCI-60 antiproliferative screen (SRB); type: cell-based; settings: Homo sapiens; 10 µM single dose, 48 h; MOLT-4 (Leukemia); read-out: Growth inhibition (%)
NCI-H322M = experiment: NCI-60 antiproliferative screen (SRB); type: cell-based, human; settings: Homo sapiens; 10 µM single dose, 48 h; NCI-H322M (NSCLC); read-out: Growth inhibition (%)
HT29 = experiment: NCI-60 antiproliferative screen (SRB); type: cell-based, human; settings: Homo sapiens, HT-29; 10 µM single dose, 48 h; HT29 (Colon); read-out: Growth inhibition (%)
MDA-MB-468 = experiment: NCI-60 antiproliferative screen (SRB); type: cell-based, human; settings: Homo sapiens; 10 µM single dose, 48 h; MDA-MB-468 (Breast); read-out: Growth inhibition (%)
HCT-15 = experiment: NCI-60 antiproliferative screen (SRB); type: cell-based, human; settings: Homo sapiens; 10 µM single dose, 48 h; HCT-15 (Colon); read-out: Growth inhibition (%)
BT-549 = experiment: NCI-60 antiproliferative screen (SRB); type: cell-based, human; settings: Homo sapiens; 10 µM single dose, 48 h; BT-549 (Breast); read-out: Growth inhibition (%)
SN12C = experiment: NCI-60 antiproliferative screen (SRB); type: cell-based, human; settings: Homo sapiens; 10 µM single dose, 48 h; SN12C (Renal); read-out: Growth inhibition (%)
HL-60(TB) = experiment: NCI-60 antiproliferative screen (SRB); type: cell-based, human; settings: Homo sapiens; 10 µM single dose, 48 h; HL-60(TB) (Leukemia); read-out: Growth inhibition (%)
SF-539 = experiment: NCI-60 antiproliferative screen (SRB); type: cell-based, human; settings: Homo sapiens; 10 µM single dose, 48 h; SF-539 (CNS); read-out: Growth inhibition (%)
DU-145 = experiment: NCI-60 antiproliferative screen (SRB); type: cell-based, human; settings: Homo sapiens; 10 µM single dose, 48 h; DU-145 (Prostate); read-out: Growth inhibition (%)
K-562 = experiment: NCI-60 antiproliferative screen (SRB); type: cell-based, human; settings: Homo sapiens, K562; 10 µM single dose, 48 h; K-562 (Leukemia); read-out: Growth inhibition (%)
SNB-75 = experiment: NCI-60 antiproliferative screen (SRB); settings: Homo sapiens, SNB-75, 48 h, read-out: Growth inhibition (%)
Protocol: Anticancer activity was tested against 60 cancer cell lines (NCI-60) after 48h treatments with a single dosage of 10 μM of compounds by using sulforhodamine B assay [39] on the traditional 96-well platform. […] The human cancer cell lines of the NCI-60 panel are grown in RPMI 1640 medium supplemented with 5% FBS (fetal bovine serum) and 2 mM L-glutamine. […] For further analysis of promising compounds, five dose screens were performed against the NCI-60 panel. Drug treatments are performed in 5 doses using 10-fold or ½ log dose dilutions.

HS 578T = experiment: NCI-60 antiproliferative screen (SRB); type: cell-based, human; settings: Homo sapiens; 10 µM single dose, 48 h; HS 578T (Breast); read-out: Growth inhibition (%)
CAKI-1 = experiment: NCI-60 antiproliferative screen (SRB); type: cell-based, human; settings: Homo sapiens; 10 µM single dose, 48 h; CAKI-1 (Renal); read-out: Growth inhibition (%)
LOX IMVI = experiment: NCI-60 antiproliferative screen (SRB); type: cell-based, human; settings: Homo sapiens; 10 µM single dose, 48 h; LOX IMVI (Melanoma); read-out: Growth inhibition (%)
HCT-116 = experiment: NCI-60 antiproliferative screen (SRB); type: cell-based, human; settings: Homo sapiens; 10 µM single dose, 48 h; HCT-116 (Colon); read-out: Growth inhibition (%)
PC-3 = experiment: NCI-60 antiproliferative screen (SRB); type: cell-based, human; settings: Homo sapiens; 10 µM single dose, 48 h; PC-3 (Prostate); read-out: Growth inhibition (%)
OVCAR-3 = experiment: NCI-60 antiproliferative screen (SRB); type: cell-based, human; settings: Homo sapiens; 10 µM single dose, 48 h; OVCAR-3 (Ovarian); read-out: Growth inhibition (%)
SK-MEL-2 = experiment: NCI-60 antiproliferative screen (SRB); type: cell-based, human; settings: Homo sapiens; 10 µM single dose, 48 h; SK-MEL-2 (Melanoma); read-out: Growth inhibition (%)

## O=C1Nc2ccc(F)cc2C1=Cc1ccc(OCc2ccccc2)cc1 (mixture of isomers) [Compound 5b, (E/Z)-3-[4-(Benzyloxy)benzylidene]-5-fluoroindolin-2-one]
MALME-3M
  inhibition at 10 µM: 7.33%
OVCAR-8
  inhibition at 10 µM: -0.84%
A549/ATCC
  inhibition at 10 µM: 3.9%
HCC-2998
  inhibition at 10 µM: -9.12%
786-0
  inhibition at 10 µM: 0.43%
MDA-MB-435
  inhibition at 10 µM: 5.59%
NCI-H226
  inhibition at 10 µM: 9.53%
SF-295
  inhibition at 10 µM: 1.11%
SW-620
  inhibition at 10 µM: -2.34%
[1]
  Positive Cytostatic Effect (cell lines with percent growth from 0 to 50 / total number of cell lines): 0/57
  Positive Cytotoxic Effect (cell lines with percent growth of <0 / total number of cell lines): 0/57
  Sensitive/Total Cell Lines: 0/57
  antiproliferative activity (in words): weak antiproliferative activity
  Mean Growth Percent: 1.62
[1]; Homo sapiens, read-out: Range of Growth Inhibition on All Cells
  inhibition at 10 µM: -10.8 to 9.53%
MOLT-4
  inhibition at 10 µM: -0.05%
NCI-H322M
  inhibition at 10 µM: 2.81%
HT29
  inhibition at 10 µM: 2.38%
MDA-MB-468
  inhibition at 10 µM: 1.56%
HCT-15
  inhibition at 10 µM: 3.51%
BT-549
  inhibition at 10 µM: -6.03%
SN12C
  inhibition at 10 µM: 0.27%
HL-60(TB)
  inhibition at 10 µM: 7.92%
SF-539
  inhibition at 10 µM: 4.67%
DU-145
  inhibition at 10 µM: 0.4%
K-562
  inhibition at 10 µM: 7.19%
SNB-75
  inhibition at 10 µM: 5.15%
HS 578T
  inhibition at 10 µM: -0.32%
CAKI-1
  inhibition at 10 µM: 8.23%
LOX IMVI
  inhibition at 10 µM: -6.24%
HCT-116
  inhibition at 10 µM: 4.15%
PC-3
  inhibition at 10 µM: -2.77%

## O=C1Nc2ccc(F)cc2C1=Cc1ccc(OCc2ccncc2)cc1 (mixture of isomers) [Compound 5n, (E/Z)-5-Fluoro-3-[4-(pyridin-4-ylmethoxy)benzylidene] indolin-2-one]
MALME-3M
  inhibition at 10 µM: 26.8%
OVCAR-8
  inhibition at 10 µM: 56.2%
A549/ATCC
  inhibition at 10 µM: 29.8%
HCC-2998
  inhibition at 10 µM: 25.7%
786-0
  inhibition at 10 µM: 19.4%
MDA-MB-435
  inhibition at 10 µM: 61.7%
NCI-H226
  inhibition at 10 µM: 44.5%
SF-295
  inhibition at 10 µM: 51.7%
SW-620
  inhibition at 10 µM: 41.1%
[1]
  Positive Cytostatic Effect (cell lines with percent growth from 0 to 50 / total number of cell lines): 26/59
  Positive Cytotoxic Effect (cell lines with percent growth of <0 / total number of cell lines): 0/59
  Sensitive/Total Cell Lines: 26/59
  The Most Sensitive Cell Line: SK-MEL-5
  number of cell lines with cytostatic effects: 26
  Mean Growth Percent: 46.02
MOLT-4
  inhibition at 10 µM: 76.7%
NCI-H322M
  inhibition at 10 µM: 27.6%
HT29
  inhibition at 10 µM: 36.4%
MDA-MB-468
  inhibition at 10 µM: 61.8%
HCT-15
  inhibition at 10 µM: 78.8%
SN12C
  inhibition at 10 µM: 41.3%
HL-60(TB)
  inhibition at 10 µM: 57.8%
SF-539
  inhibition at 10 µM: 41.7%
DU-145
  inhibition at 10 µM: 38.4%
K-562
  inhibition at 10 µM: 79.3%
SNB-75
  inhibition at 10 µM: 26.6%
OVCAR-3
  inhibition at 10 µM: 39.2%
HS 578T
  inhibition at 10 µM: 28.9%
CAKI-1
  inhibition at 10 µM: 62.3%
SK-MEL-2
  inhibition at 10 µM: 28.1%
LOX IMVI
  inhibition at 10 µM: 67.3%
HCT-116
  inhibition at 10 µM: 56.1%
PC-3
  inhibition at 10 µM: 47.4%

## O=C1Nc2cc(Cl)ccc2C1=Cc1ccc(OCc2ccncc2)cc1 (mixture of isomers) [Compound 5p, (E/Z)-6-Chloro-3-[4-(pyridin-4-ylmethoxy)benzylidene]indolin-2-one]
MALME-3M
  inhibition at 10 µM: 12.5%
OVCAR-8
  inhibition at 10 µM: 61.3%
A549/ATCC
  inhibition at 10 µM: 27.9%
HCC-2998
  inhibition at 10 µM: 20.1%
786-0
  inhibition at 10 µM: 23.9%
MDA-MB-435
  inhibition at 10 µM: 29.2%
NCI-H226
  inhibition at 10 µM: 49.5%
SF-295
  inhibition at 10 µM: 32.2%
SW-620
  inhibition at 10 µM: 49.5%
[1]
  Positive Cytostatic Effect (cell lines with percent growth from 0 to 50 / total number of cell lines): 21/59
  Positive Cytotoxic Effect (cell lines with percent growth of <0 / total number of cell lines): 0/59
  Sensitive/Total Cell Lines: 21/59
  The Most Sensitive Cell Line: SF-539
  number of cell lines with cytostatic effects: 21
  Mean Growth Percent: 41.27
MOLT-4
  inhibition at 10 µM: 79%
NCI-H322M
  inhibition at 10 µM: 22.5%
HT29
  inhibition at 10 µM: 37.8%
MDA-MB-468
  inhibition at 10 µM: 65.6%
HCT-15
  inhibition at 10 µM: 76.9%
SN12C
  inhibition at 10 µM: 34.6%
HL-60(TB)
  inhibition at 10 µM: 52.4%
SF-539
  inhibition at 10 µM: 94.2%
DU-145
  inhibition at 10 µM: 29.4%
K-562
  inhibition at 10 µM: 59.1%
SNB-75
  inhibition at 10 µM: 14.9%
OVCAR-3
  inhibition at 10 µM: 53%
HS 578T
  inhibition at 10 µM: 35%
CAKI-1
  inhibition at 10 µM: 52.8%
SK-MEL-2
  inhibition at 10 µM: 27.6%
LOX IMVI
  inhibition at 10 µM: 65.2%
HCT-116
  inhibition at 10 µM: 61.5%
PC-3
  inhibition at 10 µM: 45%

## O=C1Nc2ccc(Cl)cc2C1=Cc1ccc(OCc2ccncc2)cc1 (mixture of isomers) [Compound 5o, (E/Z)-5-Chloro-3-[4-(pyridin-4-ylmethoxy)benzylidene] indolin-2-one]
MALME-3M
  inhibition at 10 µM: 43%
OVCAR-8
  inhibition at 10 µM: 61.5%
A549/ATCC
  inhibition at 10 µM: 39.9%
HCC-2998
  inhibition at 10 µM: 12.4%
786-0
  inhibition at 10 µM: 32.4%
MDA-MB-435
  inhibition at 10 µM: 58.7%
NCI-H226
  inhibition at 10 µM: 38.3%
SF-295
  inhibition at 10 µM: 44.2%
SW-620
  inhibition at 10 µM: 48.3%
[1]
  Positive Cytostatic Effect (cell lines with percent growth from 0 to 50 / total number of cell lines): 28/59
  Positive Cytotoxic Effect (cell lines with percent growth of <0 / total number of cell lines): 0/59
  Sensitive/Total Cell Lines: 28/59
  The Most Sensitive Cell Line: MCF7
  number of cell lines with cytostatic effects: 28
  Mean Growth Percent: 47.19
MOLT-4
  inhibition at 10 µM: 81.2%
NCI-H322M
  inhibition at 10 µM: 40.6%
HT29
  inhibition at 10 µM: 39.7%
MDA-MB-468
  inhibition at 10 µM: 44.9%
HCT-15
  inhibition at 10 µM: 79.1%
SN12C
  inhibition at 10 µM: 34.4%
HL-60(TB)
  inhibition at 10 µM: 66.5%
SF-539
  inhibition at 10 µM: 44%
DU-145
  inhibition at 10 µM: 49.3%
K-562
  inhibition at 10 µM: 72.5%
SNB-75
  inhibition at 10 µM: 21.2%
OVCAR-3
  inhibition at 10 µM: 67.4%
HS 578T
  inhibition at 10 µM: 27%
CAKI-1
  inhibition at 10 µM: 38.7%
SK-MEL-2
  inhibition at 10 µM: 4.23%
LOX IMVI
  inhibition at 10 µM: 58.7%
HCT-116
  inhibition at 10 µM: 60.5%
PC-3
  inhibition at 10 µM: 52.4%
